Data set [1] has as its system A549 adenocarcinoma cell line. Briefly: Cell proliferation assay, A549 (MTT). As to conditions: Homo sapiens. The procedure:
(§1) In vitro experiments were conducted on four cancer cell lines: the A549 adenocarcinoma cell line, the H520 squamous cell carcinoma the H82 small cell lung carcinoma and Calu 3 lung adenocarcinoma. The A549 tumor cells, were plated at a density of 1.5×10^4 cells per mL and let to adhere on 96-well microplates in F12K cell culture medium enriched with 10% fetal calf serum (FCS). The H520, H82 and Calu 3 tumor cells were plated at a density of 5×10^4 cells per mL in RPMI+10% FCS. After 24 h in culture, the medium was changed and cells were exposed to ASM-024 at concentrations ranging from 10^−7M to 10^−3M (FIGS. 1A-1C). After 3 and 6 days in culture, cell growth was quantified using the MTT colorimetric assay (M2128, Sigma) at 575-690 nm or the Cell Titer fluorescence assay (G8080, Promega) at 560/590 nm.
(§2) In an another set of experiments, a series of 16 other homopiperazinium compounds, in addition to ASM-024, were tested for their anti-proliferative effect on the four tumor cell lines described above after up to 6 days in culture at concentrations of 10^-7M to 10^-3M. (FIGS. 4A-4E) Cell growth was quantified using the MTT colorimetric assay for the A-549, H520 and Calu 3 cell lines and the CellTiter Fluorescence assay.for the H82 tumor cell line These are established method of determining viable cell number in proliferation studies.

In data set [2] the test system is H82 small cell lung carcinoma. Put plainly: Cell proliferation assay, H82 (CellTiter fluorescence). It counts as cell-based. As to conditions: Homo sapiens, NCI-H82, 72 h, read-out: % Inhibition of Cell Growth at day 3 compared to vehicle-treated cells. The method, then:
as §1, §2

In data set [3] the test system is H520 squamous cell carcinoma. Briefly: Cell proliferation assay, H520 (MTT). It counts as cell-based. The settings on record: Homo sapiens. The method, then: as §1, §2
For data set [4], the system named is A549 human lung carcinoma cells. Briefly: In vivo antitumor assay, A549 xenograft in Balb/c nude mice (Example 29). The settings on record: day 49; ASM-024 45 mg/kg s.c. daily day 14-38; taxol 10 mg/kg i.p. days 21, 28, 35; cisplatin 2.5 mg/kg i.p. days 28, 35. The procedure: For the in vivo antitumor assay, A549 human lung carcinoma cells (3.5×106) in 50% F12K medium (Matrigel) were implanted subcutaneously in the flank of Balb/c nude mice (nu/nu, Charles River) and allowed to grow for 14 days. ASM-024 was administered daily by subcutaneous delivery at the dose of 45 mg/kg from day 14 to day 38 post cell inoculation. Taxol was administrated intraperitoneally at the dose of 10 mg/kg on days 21, 28 and 35. Cisplatin was administrated intraperioneally at the dose of 2.5 mg/kg on days 28 and 35. From day 14 to day 49, tumor length and width were measured once or twice a week with a caliper and tumor volume calculated according to the formula Volume=(width2×length)/2.

Another data set concerns A549 lung adenocarcinoma. Put plainly: In vitro combination treatment with cisplatin or taxol, A549 (MTT). It counts as cell-based, human. As to conditions: A549, 3 days; increasing concentrations added to suboptimal doses of ASM-024. The procedure: The concomitant effect of ASM-024 and cisplatin or taxol on the proliferation of A549 lung adenocarcinoma and MCF7 breast cancer adenocarcinoma cells was assessed in vitro.
A549 cells (3.0×10^3cells/well) were first cultured with 10% FBS in F12K media and MCF7 cells (10×10^3 cells/well) with 10% FBS in EMEM media for 24 hours to allow cells to adhere to the plate at 37° C. in a humidified incubator with 5% CO2. The next day, the media was replaced in medium containing appropriate drug concentrations […] for an additional 72 hours. Cell viability was quantified using the MTT colorimetric assay (M2128, Sigma) at 575-690 nm.

SMILES strings stand for the structures. Like-named read-outs stand apart in the source and are kept apart here.

One may read the melting point as the temperature of the solid-liquid transition. In general, IC50 refers to the midpoint of a concentration-inhibition curve. One may read the inhibition as the change of the read-out against control, counted positive when it falls.

For the molecule `CC[N+]1(C)CCCN(c2ccccc2)CC1.[I-]` (stereo not drawn) (hydrate or solvate) [ASM-055, 1-Ethyl-1-Methyl-4-(phenyl)-homopiperazinium Tosylate], the melting point fell in the range of 167.5 to 168.7 °C.

On to `C[N+]1(C)CCCN(c2ccccc2)CC1.[I-]` [ASM-002, 1,1-dimethyl-4-phenylhomopiperazinium iodide], for which the melting point lay in the range of 158 to 160 °C. The IC50 in data set [1] (A549, 72 h, read-out: IC50 Day 3, A549, day 3 in culture) was 40 ± 15 µM. The half-maximal inhibitory concentration (IC50) in data set [1] (A549, 144 h, read-out: IC50 Day 6, A549, day 6 in culture) was 38 ± 12 µM. Also, in data set [2], the inhibition at 100 µM is -15% and the inhibition at 300 µM came to 31%. In addition, in data set [3] (NCI-H520, 72 h, read-out: IC50 Day 3, H520, day 3 in culture), the IC50 is 323 ± 60 µM. Besides, in data set [3] (NCI-H520, 144 h, read-out: IC50 Day 6, H520, day 6 in culture), the 50% inhibitory concentration (IC50) was determined as 170 ± 23 µM.

Consider `N.N.[Cl][Pt][Cl]` [Cisplatin], for which, in data set [4], the “A549 human carcinoma tumor growth (tumor volume)” value is given as “decrease in A549 human carcinoma tumor growth”. Moreover, the “inhibition of in vitro proliferation, combination” value in the data set with A549 lung adenocarcinoma was “potentiated the inhibition of in vitro proliferation”.

Regarding `CC(=O)O[C@H]1C(=O)[C@@]2(C)[C@H]([C@H](OC(=O)c3ccccc3)[C@]3(O)C[C@H](OC(=O)[C@H](O)[C@@H](NC(=O)c4ccccc4)c4ccccc4)C(C)=C1C3(C)C)[C@]1(OC(C)=O)CO[C@@H]1C[C@@H]2O` [taxol, Paclitaxel], the “A549 human carcinoma tumor growth (tumor volume)” value in data set [4] is “decrease in A549 human carcinoma tumor growth”. In the data set on A549 lung adenocarcinoma, the “inhibition of in vitro proliferation, combination” value is listed as “potentiated the inhibition of in vitro proliferation”.

For the origin of these results see US10507212B2, “Method for use of homopiperazinium compounds in the treatment of cancer” (UNIVERSITÉ LAVAL, priority 2014, dated 2019).
